Experimental data from BindingDB's records for doi:10.1124/jpet.103.049395 (Lcg Bioscience, 2003).
Where a SMILES comes first, the peptide text is derived from it. Bridges are numbered along the chain shown (N, C = ends). [ ]: non-standard residue; d: D form. Orn = NCCC[C@H](N)C(=O)O; Mpa = O=C(O)CCS

Key:
Vasopressin V1a receptor = Vasopressin V1a receptor (Homo sapiens, UniProt P37288)
Vasopressin V1b receptor = target: T1, Vasopressin V1b receptor (Homo sapiens, UniProt P47901)
T1 sequence (P47901 whole entry): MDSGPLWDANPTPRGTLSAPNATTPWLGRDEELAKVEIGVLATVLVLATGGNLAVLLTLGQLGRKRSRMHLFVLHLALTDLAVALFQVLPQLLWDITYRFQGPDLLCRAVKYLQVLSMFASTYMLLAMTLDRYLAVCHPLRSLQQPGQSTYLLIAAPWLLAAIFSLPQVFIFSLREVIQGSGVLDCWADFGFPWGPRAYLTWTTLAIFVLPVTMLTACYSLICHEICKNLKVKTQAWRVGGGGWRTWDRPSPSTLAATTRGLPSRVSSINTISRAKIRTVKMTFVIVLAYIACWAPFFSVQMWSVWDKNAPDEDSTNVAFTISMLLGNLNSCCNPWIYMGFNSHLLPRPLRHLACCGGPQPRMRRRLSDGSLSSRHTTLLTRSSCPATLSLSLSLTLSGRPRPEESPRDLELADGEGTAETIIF

Oxytocin receptor [1] = target: T2, Oxytocin receptor (Homo sapiens, UniProt P30559)
T2 sequence (P30559 whole entry): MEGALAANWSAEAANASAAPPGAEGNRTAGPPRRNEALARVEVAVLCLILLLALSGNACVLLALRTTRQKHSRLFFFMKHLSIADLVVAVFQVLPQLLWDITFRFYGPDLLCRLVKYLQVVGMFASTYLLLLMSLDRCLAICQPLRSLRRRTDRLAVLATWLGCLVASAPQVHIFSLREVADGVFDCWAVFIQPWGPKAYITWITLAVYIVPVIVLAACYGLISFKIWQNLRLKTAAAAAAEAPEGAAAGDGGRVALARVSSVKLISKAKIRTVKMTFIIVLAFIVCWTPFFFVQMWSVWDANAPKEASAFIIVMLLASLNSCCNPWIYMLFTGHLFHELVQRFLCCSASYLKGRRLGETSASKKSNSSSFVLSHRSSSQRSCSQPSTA

Oxytocin receptor [2] = target: T3, Oxytocin receptor (Rattus norvegicus, UniProt P70536)
T3 sequence (P70536 whole entry): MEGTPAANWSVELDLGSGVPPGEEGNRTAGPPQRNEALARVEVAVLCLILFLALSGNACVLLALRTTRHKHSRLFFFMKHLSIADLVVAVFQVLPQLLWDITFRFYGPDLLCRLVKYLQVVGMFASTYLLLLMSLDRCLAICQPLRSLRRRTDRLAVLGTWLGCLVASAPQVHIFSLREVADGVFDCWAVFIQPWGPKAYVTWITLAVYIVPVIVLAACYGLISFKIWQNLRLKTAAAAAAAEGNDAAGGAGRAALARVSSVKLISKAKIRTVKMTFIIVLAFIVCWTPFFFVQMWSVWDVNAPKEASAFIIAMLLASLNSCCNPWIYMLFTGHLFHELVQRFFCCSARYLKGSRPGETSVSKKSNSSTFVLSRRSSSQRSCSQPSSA

Vasopressin V2 receptor = Vasopressin V2 receptor (Homo sapiens, UniProt P30518)
Chain of Vasopressin V2 receptor (P30518 whole entry): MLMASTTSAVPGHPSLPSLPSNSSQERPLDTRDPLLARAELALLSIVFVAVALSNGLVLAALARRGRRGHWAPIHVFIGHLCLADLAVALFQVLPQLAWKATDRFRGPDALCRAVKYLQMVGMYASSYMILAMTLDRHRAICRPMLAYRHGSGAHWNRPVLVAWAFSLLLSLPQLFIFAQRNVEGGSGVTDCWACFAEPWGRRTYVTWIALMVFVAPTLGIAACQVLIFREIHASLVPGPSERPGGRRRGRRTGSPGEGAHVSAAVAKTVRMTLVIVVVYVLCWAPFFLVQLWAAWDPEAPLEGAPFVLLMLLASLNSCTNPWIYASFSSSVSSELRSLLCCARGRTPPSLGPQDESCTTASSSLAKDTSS

Chain of Vasopressin V1a receptor (P37288 whole entry): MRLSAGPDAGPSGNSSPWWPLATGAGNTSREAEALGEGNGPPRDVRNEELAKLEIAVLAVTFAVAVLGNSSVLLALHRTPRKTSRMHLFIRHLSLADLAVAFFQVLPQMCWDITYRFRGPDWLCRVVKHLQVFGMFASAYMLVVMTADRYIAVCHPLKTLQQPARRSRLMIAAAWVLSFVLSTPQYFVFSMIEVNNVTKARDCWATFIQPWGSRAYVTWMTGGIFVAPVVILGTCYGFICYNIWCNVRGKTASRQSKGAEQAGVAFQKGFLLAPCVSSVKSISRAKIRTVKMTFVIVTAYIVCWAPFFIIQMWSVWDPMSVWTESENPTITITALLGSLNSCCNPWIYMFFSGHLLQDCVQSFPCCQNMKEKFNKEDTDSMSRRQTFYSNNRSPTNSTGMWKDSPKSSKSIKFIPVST

| Ki (Vasopressin V1a receptor) [nM] | Ki (Vasopressin V1b receptor) [nM] | Ki (Oxytocin receptor [1]) [nM] | Ki (Oxytocin receptor [2]) [nM] | Ki (Vasopressin V2 receptor) [nM] | SMILES |
| --- | --- | --- | --- | --- | --- |
| 170 | > 10000 | 17 | 135 | > 10000 | CO/N=C1/C[C@@H](C(=O)NC[C@@H](O)c2ccccc2)N(C(=O)c2ccc(-c3ccccc3C)cc2)C1 [(2S,4Z)-N-[(2S)-2-hydroxy-2-phenylethyl]-4-(methoxyimino)-1-[(2'-methyl[1,1'-biphenyl]-4-yl)carbonyl]-2-pyrrolidinecarboxamide] |
| 3.5 | 657 | 81 |  | 954 | CCOc1ccc(C[C@H]2NC(=O)CCSSC[C@@H](C(=O)N3CCC[C@H]3C(=O)N[C@@H](CCCN)C(=O)NCC(N)=O)NC(=O)[C@H](CC(N)=O)NC(=O)[C@H]([C@@H](C)O)NC(=O)[C@H]([C@@H](C)CC)NC2=O)cc1 [CAS_90779-69-4] ([Mpa][dY](Et)ITNCP[Orn]G-NH2; disulfide 1-6) |
